# Measured values: patent US11564964B2, “Compositions and methods for the treatment of coronavirus infection” (priority 2021, dated 2023)
# Experiments:
# [1] = tested on: SARS-CoV-2 (hCoV-19/Egypt/NRC-3/2020 isolate); conditions: for in vitro SARS-CoV-2 testing (activity in words): SARS CoV-2 infected Vero E6 cells; for activity against SARS CoV-2 (in words): (100 μg/mL)
# MTT cytotoxicity assay = assay type: cell-based; conditions: African green monkey, Vero E6 cells, read-out: cytotoxicity IC50 against Vero E6 cells
# Protocol: Vero-E6 cells with the previously reported (MTT) method^34 were used to test the cytotoxic activity of the test compounds and extracts. In brief, the cells were plated in 96-well plates and incubated for 24 h at 37° C. in 5% CO2 (100 μL/well at a density of 3×10^5 cells/mL). The cells were then treated with different concentrations of extracts/the tested compounds in triplicates. The supernatant was discarded after another 24 h, and cell monolayers were washed three times with sterile 1× PBS. MTT solution was added to each well and then incubated at 37° C. for 4 h. The produced formazan crystals were dissolved with 200 μL of acidified isopropanol (0.04 M HCl in absolute isopropanol=0.073 mL HCL in 50 mL isopropanol). Thereafter, the absorbance of formazan solutions was measured at λmax 540 nm using a multi-well plate reader. The following equation was applied to calculate the percentage of cytotoxicity compared to the untreated cells:
# [formula] The produced plot of % cytotoxicity versus sample concentrations was then used to calculate the IC50s. Viral Inhibitory Concentration 50 (IC50) Determination
# SARS-CoV-2 mRNA = test: Quantitative real time measurement of SARS-CoV-2 mRNA expression (TaqMan RT-PCR) in infected Vero E6 cells; assay type: cell-based; conditions: different concentrations, 24 h and 48 h post treatment, normalized to infected untreated cells
# Protocol: The RNA extraction of expressed SARS-CoV-2 mRNA in infected treated and untreated cell monolayers was performed using QlAamp Viral RNA Mini Kit according to manufacturer instructions. To assess the viral mRNA expression in infected/treated and infected/untreated Vero E6 cells, TaqMan Real-time RT-PCR assay was performed. Briefly, 100 ng of extracted RNA were mixed with TaqMan primers to quantify SARS-CoV-2 mRNA (targeting […]: HKU-ORF1b-nsp14F: 5′-[…]-3′ (SEQ ID NO: 1), HKU-ORF1b-nsp141P Taqman Probe: 5′-FAM-[…]-TAMRA-3′ (SEQ ID NO: 2), HKU-ORF1b-nsp14R: 5′-[…]-3′ (SEQ ID NO: 3) together with the other components of Verso 1-step RT-qPCR Kit plus Rox (Invitrogen) in recommended volumes (up to 50 μl reaction) and thermal protocol conditions.
# To validate our in silico-derived hits, we evaluated their antiviral activity against the clinical SARS-CoV-2 viral isolate in Vero E6 cells. […] Afterwards, the SARS CoV-2 infected Vero E6 cells were incubated with each of the tested compounds at different concentrations. The antiviral activity was then evaluated by determining the viral copy numbers in the cell supernatant via qRT-PCR. […] The poor antiviral activity of other metabolites (>100 μg/mL) might be attributed to their high polarity that could hinder the permeability across the cell membrane^39.
# [2] = tested on: SARS-CoV-2 (hCoV-19/Egypt/NRC-3/2020 isolate); test: microbe, parasite or virus in culture; conditions: Severe acute respiratory syndrome coronavirus 2, Vero C1008, read-out: IC50, inhibition of SARS CoV-2 viral replication
structure (smiles),measurement,setting,value
O=c1cc(-c2ccc(O)cc2)oc2cc(O[C@@H]3O[C@H](CO)[C@@H](O)[C@H](O)[C@H]3O)cc(O)c12 [apigenin 7-O-glucoside],in vitro SARS-CoV-2 testing (activity in words),[1],inactive
COc1ccc(C[C@H]2COC(=O)[C@@H]2Cc2ccc(O[C@@H]3O[C@H](CO)[C@@H](O)[C@H](O)[C@H]3O)c(OC)c2)cc1OC [arctiin],in vitro SARS-CoV-2 testing (activity in words),[1],inactive
same,IC50 at 24 h,MTT cytotoxicity assay,> 50 µg/mL
O=c1c(O[C@@H]2O[C@H](CO)[C@@H](O)[C@H](O)[C@H]2O)c(-c2ccc(O)cc2)oc2cc(O)cc(O)c12 [astragalin],in vitro SARS-CoV-2 testing (activity in words),[1],inactive
same,IC50 at 24 h,MTT cytotoxicity assay,> 50 µg/mL
C=C1C(=O)O[C@@H]2/C=C(\CO)CC/C=C(\C)C[C@H](OC(=O)C(=C)[C@@H](O)CO)[C@@H]12 [cnicin],inhibitory effect on the viral mRNA,SARS-CoV-2 mRNA,significant viral mRNA inhibition
same,Si=CC50/IC50,"[1]; safety profile, Vero E6 / SARS CoV-2",70.3
same,IC50,[2],1.18 µg/mL
O=c1cc(-c2ccc(O)c(O)c2)oc2cc(O)cc(O)c12 [luteolin],activity against SARS CoV-2 (in words),[1],inactive
COc1cc(C[C@H]2COC(=O)[C@]2(O)Cc2ccc(O[C@@H]3O[C@H](CO)[C@@H](O)[C@H](O)[C@H]3O)c(OC)c2)ccc1O [nortracheloside],in vitro SARS-CoV-2 testing (activity in words),[1],inactive
CC[C@H](CC[C@@H](C)[C@H]1CC[C@H]2[C@@H]3CC=C4C[C@@H](O[C@@H]5O[C@H](CO)[C@@H](O)[C@H](O)[C@H]5O)CC[C@]4(C)[C@H]3CC[C@]12C)C(C)C [sitogluside],activity against SARS CoV-2 (in words),[1],inactive
